The structures appear in SMILES notation. A value given as a limit tells only on which side of the number the result lay.

The results in this text go back to PMC4554834 (Bioorganic & medicinal chemistry, 2015).

The target of this experiment is T1, human OX1 receptors (Homo sapiens, UniProt O43613).
T1 sequence (O43613 1-425): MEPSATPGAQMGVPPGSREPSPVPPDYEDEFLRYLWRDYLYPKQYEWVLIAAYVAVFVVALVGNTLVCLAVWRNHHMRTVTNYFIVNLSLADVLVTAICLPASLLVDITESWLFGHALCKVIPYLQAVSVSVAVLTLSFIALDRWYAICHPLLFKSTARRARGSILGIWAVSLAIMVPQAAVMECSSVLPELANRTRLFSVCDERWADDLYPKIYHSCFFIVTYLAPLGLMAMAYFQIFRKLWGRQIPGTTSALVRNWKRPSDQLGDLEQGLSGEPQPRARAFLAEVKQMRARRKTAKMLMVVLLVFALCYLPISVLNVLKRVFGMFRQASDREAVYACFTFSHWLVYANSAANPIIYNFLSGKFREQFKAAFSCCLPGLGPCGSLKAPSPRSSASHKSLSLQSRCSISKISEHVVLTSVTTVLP
In words: Calcium mobilization Ke. Particulars: for OX1 potency (in words): qualitative statement. It counts as cell-based.

Where [1] appears, read: pre-incubation increased to 45 min and 60 min.
Where [2] appears, read: simultaneous addition of antagonist and Orexin A.

Turning to `COc1ccc(CC2c3ccc(N4CCCCC4)cc3CCN2CC(=O)NCc2ccccc2)cc1OC` (centres unmarked) [25q, N-Benzyl-2-{1-[(3,4-dimethoxyphenyl)methyl]-6-(piperidin-1-yl)-1,2,3,4-tetrahydroisoquinolin-2-yl}acetamide], the Kb is above 10 µM and the “OX1 potency (in words)” value is reported as “no detectable potency”.

Consider `COc1ccc(CC2c3ccc(N(C)Cc4ccccc4)cc3CCN2CC(=O)NCc2ccccc2)cc1OC` (centres unmarked) [25i, N-Benzyl-2-{6-[benzyl(methyl)amino]-1-[(3,4-dimethoxyphenyl)methyl]-1,2,3,4-tetrahydroisoquinolin-2-yl}acetamide], for which the Kb is above 10 µM.

As for `CCOC(=O)CCCCCCOc1ccc2c(c1)CCN(CC(=O)NCc1ccccc1)C2Cc1ccc(OC)c(OC)c1` (centres unmarked) [17f, Ethyl 7-({2-[(benzylcarbamoyl)methyl]-1-[(3,4-dimethoxyphenyl)methyl]-1,2,3,4-tetrahydroisoquinolin-6-yl}oxy)heptanoate], the Kb was above 10 µM.

In the case of `CCCCOc1ccc2c(c1)C(Cc1ccc(OC)c(OC)c1)N(CC(=O)NCc1ccccc1)CC2` (centres unmarked) [10e, N-Benzyl-2-{7-butoxy-1-[(3,4-dimethoxyphenyl)methyl]-1,2,3,4-tetrahydroisoquinolin-2-yl}acetamide], the Kb worked out at 0.23 ± 0.07 µM.

For the compound `CCCCCNc1ccc2c(c1)CCN(CC(=O)NCc1ccccc1)C2Cc1ccc(OC)c(OC)c1` (centres unmarked) [25r, N-Benzyl-2-{1-[(3,4-dimethoxyphenyl)methyl]-6-(pentylamino)-1,2,3,4-tetrahydroisoquinolin-2-yl}acetamide], the Kb was above 10 µM.

As for `COc1ccc(CC2c3ccc(NCCCCOc4ccccc4)cc3CCN2CC(=O)NCc2ccccc2)cc1OC` (centres unmarked) [25l, N-Benzyl-2-{1-[(3,4-dimethoxyphenyl)methyl]-6-[(4-phenoxybutyl)amino]-1,2,3,4-tetrahydroisoquinolin-2-yl}acetamide], the Kb was 2.08 ± 0.02 µM.

Take `COc1ccc(CC2c3ccc(NS(C)(=O)=O)cc3CCN2CC(=O)NCc2ccccc2)cc1OC` (centres unmarked) [compound 27, N-Benzyl-2-{1-[(3,4-dimethoxyphenyl)methyl]-6-methanesulfonamido-1,2,3,4-tetrahydroisoquinolin-2-yl}acetamide]: the Kb is above 10 µM and the “OX1 potency (in words)” value was “no significant potency”.

For the compound `COc1ccc(CC2c3ccc(OCC(F)(F)F)cc3CCN2CC(=O)NCc2ccccc2)cc1OC` (centres unmarked) [17b, N-Benzyl-2-{1-[(3,4-dimethoxyphenyl)methyl]-6-(2,2,2-trifluoroethoxy)-1,2,3,4-tetrahydroisoquinolin-2-yl}acetamide], the Kb was above 10 µM.

As for `COc1ccc(CC2c3ccc(NC(=O)Nc4ccccc4)cc3CCN2CC(=O)NCc2ccccc2)cc1OC` (centres unmarked) [28d, N-Benzyl-2-{1-[(3,4-dimethoxyphenyl)methyl]-6-[(phenylcarbamoyl)amino]-1,2,3,4-tetrahydroisoquinolin-2-yl}acetamide], the Kb is above 10 µM and the “OX1 potency (in words)” value is on record as “no significant potency”.

Take `CCCCCCNC(=O)Nc1ccc2c(c1)CCN(CC(=O)NCc1ccccc1)C2Cc1ccc(OC)c(OC)c1` (centres unmarked) [28e, N-Benzyl-2-{1-[(3,4-dimethoxyphenyl)methyl]-6-[(hexylcarbamoyl)amino]-1,2,3,4-tetrahydroisoquinolin-2-yl}acetamide]: the Kb is 5.23 ± 0.68 µM and the “OX1 potency (in words)” value is listed as “no significant potency”.

As for `COc1ccc(CC2c3ccc(NC(C)C)cc3CCN2CC(=O)NCc2ccccc2)cc1OC` (centres unmarked) [25e, N-Benzyl-2-{1-[(3,4-dimethoxyphenyl)methyl]-6-[(propan-2-yl)amino]-1,2,3,4-tetrahydroisoquinolin-2-yl}acetamide], the Kb is above 10 µM.

In the case of `COc1ccc(CC2c3ccc(NCC(=O)N(C)C)cc3CCN2CC(=O)NCc2ccccc2)cc1OC` (centres unmarked) [26h, 2-({2-[(Benzylcarbamoyl)methyl]-1-[(3,4-dimethoxyphenyl)methyl]-1,2,3,4-tetrahydroisoquinolin-6-yl}amino)-N,N-dimethylacetamide], the Kb was above 10 µM and the “OX1 potency (in words)” value is on record as “large decline in potency”.

Regarding `COc1ccc(CC2c3ccc(NCCCC(=O)OC(C)(C)C)cc3CCN2CC(=O)NCc2ccccc2)cc1OC` (centres unmarked) [26e, Tert-butyl 4-({2-[(benzylcarbamoyl)methyl]-1-[(3,4-dimethoxyphenyl)methyl]-1,2,3,4-tetrahydroisoquinolin-6-yl}amino)butanoate], the Kb came to 1.01 ± 0.2 µM. In addition, the “mode of antagonism at OX1” value (15 minute pre-incubation) is on record as “insurmountable antagonism”. For the same compound, under setting [1], the “mode of antagonism at OX1” value is on record as “competitive antagonists”. Also, the “mode of antagonism at OX1” value under setting [2] is “competitive antagonists”.

As for `CCCOc1ccc2c(c1)CCN(CC(=O)NCc1ccccc1)C2Cc1ccc(OC)c(OC)c1` (centres unmarked) [17a, N-Benzyl-2-{1-[(3,4-dimethoxyphenyl)methyl]-6-propoxy-1,2,3,4-tetrahydroisoquinolin-2-yl}acetamide], the Kb is above 10 µM.

As to `CCCCCN(C)c1ccc2c(c1)CCN(CC(=O)NCc1ccccc1)C2Cc1ccc(OC)c(OC)c1` (centres unmarked) [25s, N-Benzyl-2-{1-[(3,4-dimethoxyphenyl)methyl]-6-[methyl(pentyl)amino]-1,2,3,4-tetrahydroisoquinolin-2-yl}acetamide], the Kb is above 10 µM.

As to `CCCN(C)c1ccc2c(c1)CCN(CC(=O)NCc1ccccc1)C2Cc1ccc(OC)c(OC)c1` (centres unmarked) [25c, N-Benzyl-2-{1-[(3,4-dimethoxyphenyl)methyl]-6-[methyl(propyl)amino]-1,2,3,4-tetrahydroisoquinolin-2-yl}acetamide], the Kb was 0.619 ± 0.096 µM.

For the compound `COc1ccc(CC2c3ccc(NCC4CC4)cc3CCN2CC(=O)NCc2ccccc2)cc1OC` (centres unmarked) [25f, N-Benzyl-2-{6-[(cyclopropylmethyl)amino]-1-[(3,4-dimethoxyphenyl)methyl]-1,2,3,4-tetrahydroisoquinolin-2-yl}acetamide], the Kb was above 10 µM.

Turning to `COc1ccc(CC2c3ccc(NCCN4CCCCC4)cc3CCN2CC(=O)NCc2ccccc2)cc1OC` (centres unmarked) [25o, N-Benzyl-2-{1-[(3,4-dimethoxyphenyl)methyl]-6-{[2-(piperidin-1-yl)ethyl]amino}-1,2,3,4-tetrahydroisoquinolin-2-yl}acetamide], the Kb is above 10 µM and the “OX1 potency (in words)” value is given as “loss of detectable potency”.

Consider `CCOc1ccc2c(c1)C(Cc1ccc(OC)c(OC)c1)N(CC(=O)NCc1ccccc1)CC2` (centres unmarked) [10b, N-Benzyl-2-{1-[(3,4-dimethoxyphenyl)methyl]-7-ethoxy-1,2,3,4-tetrahydroisoquinolin-2-yl}acetamide], for which the Kb amounted to 0.0373 ± 0.0078 µM.

As to `CCCNc1ccc2c(c1)CCN(CC(=O)NCc1ccccc1)C2Cc1ccc(OC)c(OC)c1` (centres unmarked) [25b, N-Benzyl-2-{1-[(3,4-dimethoxyphenyl)methyl]-6-(propylamino)-1,2,3,4-tetrahydroisoquinolin-2-yl}acetamide], the Kb was above 10 µM.

For the compound `CCOC(=O)CCCOc1ccc2c(c1)CCN(CC(=O)NCc1ccccc1)C2Cc1ccc(OC)c(OC)c1` (centres unmarked) [17e, Ethyl 4-({2-[(benzylcarbamoyl)methyl]-1-[(3,4-dimethoxyphenyl)methyl]-1,2,3,4-tetrahydroisoquinolin-6-yl}oxy)butanoate], the Kb worked out at 1 ± 0.19 µM. Also, where the note is “15 minute pre-incubation”, the “mode of antagonism at OX1” value is “insurmountable antagonism”. In addition, under setting [1], the “mode of antagonism at OX1” value is recorded as “competitive antagonists”. Besides, the “mode of antagonism at OX1” value under setting [2] was “competitive antagonists”.

Regarding `CCCN(CCC)c1ccc2c(c1)CCN(CC(=O)NCc1ccccc1)C2Cc1ccc(OC)c(OC)c1` (centres unmarked) [25d, N-Benzyl-2-{1-[(3,4-dimethoxyphenyl)methyl]-6-(dipropylamino)-1,2,3,4-tetrahydroisoquinolin-2-yl}acetamide], the Kb was determined as 2.35 ± 0.49 µM.

Take `COc1ccc(CC2c3ccc(OS(=O)(=O)c4ccccc4)cc3CCN2CC(=O)NCc2ccccc2)cc1OC` (centres unmarked) [18b, 2-[(Benzylcarbamoyl)methyl]-1-[(3,4-dimethoxyphenyl)methyl]-1,2,3,4-tetrahydroisoquinolin-6-yl benzenesulfonate]: the Kb is above 10 µM.

Take `CCOC(=O)CCCCCCNc1ccc2c(c1)CCN(CC(=O)NCc1ccccc1)C2Cc1ccc(OC)c(OC)c1` (centres unmarked) [26g, Ethyl 7-({2-[(benzylcarbamoyl)methyl]-1-[(3,4-dimethoxyphenyl)methyl]-1,2,3,4-tetrahydroisoquinolin-6-yl}amino)heptanoate]: the Kb is above 10 µM.

For `CCOC(=O)CNc1ccc2c(c1)CCN(CC(=O)NCc1ccccc1)C2Cc1ccc(OC)c(OC)c1` (centres unmarked) [26a, Ethyl 2-({2-[(benzylcarbamoyl)methyl]-1-[(3,4-dimethoxyphenyl)methyl]-1,2,3,4-tetrahydroisoquinolin-6-yl}amino)acetate], the Kb turned out to be 0.427 ± 0.069 µM and the “OX1 potency (in words)” value is “some activity”.

`CCOC(=O)C(C)Nc1ccc2c(c1)CCN(CC(=O)NCc1ccccc1)C2Cc1ccc(OC)c(OC)c1` (centres unmarked) [26b, Ethyl 2-({2-[(benzylcarbamoyl)methyl]-1-[(3,4-dimethoxyphenyl)methyl]-1,2,3,4-tetrahydroisoquinolin-6-yl}amino)propanoate]: the Kb is above 10 µM.

Consider `CCCCCCNc1ccc2c(c1)CCN(CC(=O)NCc1ccccc1)C2Cc1ccc(OC)c(OC)c1` (centres unmarked) [25t, N-Benzyl-2-{1-[(3,4-dimethoxyphenyl)methyl]-6-(hexylamino)-1,2,3,4-tetrahydroisoquinolin-2-yl}acetamide], for which the Kb was above 10 µM.

In the case of `COc1ccc(CC2c3ccc(NC(=O)c4ccccc4)cc3CCN2CC(=O)NCc2ccccc2)cc1OC` (centres unmarked) [28c, N-{2-[(Benzylcarbamoyl)methyl]-1-[(3,4-dimethoxyphenyl)methyl]-1,2,3,4-tetrahydroisoquinolin-6-yl}benzamide], the Kb was above 10 µM.
